The record followed here is patent US8247377B2, “Non-steroidal glucocorticoid inhibitors and their use in treating inflammation, allergy and auto-immune conditions” (Glaxo Group Limited, priority 2006, dated 2012).

One data set concerns NFκB. Description: NFκB agonist assay in A549 SPAP cells. As to conditions: Homo sapiens; A549 SPAP cells, TNFα 3.2 ng/ml; read-out: pIC50 for the NFkB assay (converted). The format is cell-based. The source says:
Human lung carcinoma A549 cell line (ECACC No. 86012804) has been stably transfected in house with a plasmid containing an ELAM promoter sequence that has a NFκB response element within it. Stimulation of the cell line with TNFα results in intracellular signal transduction and ultimately translocation of NFκB into the nucleus. This activates the inserted DNA sequence resulting in transcription of the integrated SPAP gene, which is quantified using a colorimetric assay. […] The stably transfected cell line was grown as a monolayer in DMEM supplemented with FCS-HI (10%), Non-essential amino acids (1%), L-Glutamine (2 mM), Pen/Strep (1%) and Geneticin (50 mg/ml).
A 70% confluent T225 flask of A549 SPAP cells was harvested by centrifugation for 5 min at 200 g, resuspended in assay buffer (DMEM supplemented with 10% FCS 2×HI, 2 mM L-Glutamine, 1% Pen/Strep and Non essential amino acids) and diluted to 0.16×10^6/ml. 60 μl of cell solution was dispensed to each well of clear Nunc 384-well plates, containing compound at the required concentration. Plates were incubated for 1 h at 37° C., 95% humidity, 5% CO2 before 10 μl of TNFα was added at final concentration of 3.2 ng/ml and then returned to the cell incubator for 15 h. Plates were equilibrated to room temperature for 1 h prior to the addition of 25 μl of pNPP buffer (1M Diethanolamine pH 9.8, 0.5 mM MgCl2, 0.28M NaCl, 2 mg/ml pNPP) to each well of assay plates. The plates were covered to protect the reagents from light, and then incubated at room temperature for approximately 1 hour before reading them on an Ascent using a 405 nm single filter. Dose response curves were constructed from which pIC50 values were estimated.

Another data set addresses T1, progesterone receptor (Homo sapiens, UniProt P06401).
T1 construct: expressed in transfected cells; host or cells: CV-1 cells transduced with PRb-BacMam and MMTV-BacMam
T1 sequence (P06401 1-933): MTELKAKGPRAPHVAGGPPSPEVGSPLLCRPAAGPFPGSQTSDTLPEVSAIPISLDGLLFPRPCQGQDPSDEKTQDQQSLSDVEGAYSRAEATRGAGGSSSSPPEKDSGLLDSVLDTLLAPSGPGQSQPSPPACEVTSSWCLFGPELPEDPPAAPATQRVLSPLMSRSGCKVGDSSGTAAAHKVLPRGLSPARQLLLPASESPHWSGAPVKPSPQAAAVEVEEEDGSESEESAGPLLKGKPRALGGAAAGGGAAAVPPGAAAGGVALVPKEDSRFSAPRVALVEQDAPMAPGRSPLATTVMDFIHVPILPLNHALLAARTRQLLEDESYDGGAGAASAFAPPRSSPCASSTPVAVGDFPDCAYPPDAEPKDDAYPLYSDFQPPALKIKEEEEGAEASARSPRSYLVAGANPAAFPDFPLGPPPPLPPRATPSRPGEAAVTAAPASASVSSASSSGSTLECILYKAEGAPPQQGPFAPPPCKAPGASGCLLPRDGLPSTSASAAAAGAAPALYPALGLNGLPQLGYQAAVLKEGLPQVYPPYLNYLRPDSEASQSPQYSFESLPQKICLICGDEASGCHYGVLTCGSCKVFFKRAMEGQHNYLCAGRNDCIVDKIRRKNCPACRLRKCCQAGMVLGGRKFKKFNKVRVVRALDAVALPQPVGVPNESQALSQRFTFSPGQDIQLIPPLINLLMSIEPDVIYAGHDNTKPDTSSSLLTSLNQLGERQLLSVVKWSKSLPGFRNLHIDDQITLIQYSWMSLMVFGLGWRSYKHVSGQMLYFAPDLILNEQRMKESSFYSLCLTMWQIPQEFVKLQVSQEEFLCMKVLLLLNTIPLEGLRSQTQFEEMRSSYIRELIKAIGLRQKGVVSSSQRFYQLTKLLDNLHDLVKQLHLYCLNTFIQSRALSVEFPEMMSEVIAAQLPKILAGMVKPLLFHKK
Description: Assay for progesterone receptor activity (CV-1 cells, PRb-BacMam/MMTV-BacMam). The format is cell-based. As to conditions: CV-1 cells transduced with PRb-BacMam and MMTV-BacMam; read-out: pEC50 progesterone receptor activity (converted). The protocol:
A T225 flask of CV-1 cells at a density of 80% confluency was washed with PBS, detached from the flask using 0.25% trypsin and counted using a Sysmex KX-21N. Cells were diluted in DMEM containing 10% Hyclone, 2 mM L-Glutamate and 1% Pen/Strep at 140 cells/μl and transduced with 10% PRb-BacMam and 10% MMTV-BacMam. […] of suspension cells were dispensed to each well of white Nunc 384-well plates, containing compounds at the required concentration. After 24 h 10 μl of Steadylite were added to each well of the plates. Plates were incubated in the dark for 10 min before reading them on a Viewlux reader. Dose response curves were constructed from which pEC50 values were estimated.

The next data set addresses T2, glucocorticoid receptor (Homo sapiens, UniProt P04150).
T2 construct: a partially purified full length glucocorticoid receptor
T2 sequence (P04150 1-777): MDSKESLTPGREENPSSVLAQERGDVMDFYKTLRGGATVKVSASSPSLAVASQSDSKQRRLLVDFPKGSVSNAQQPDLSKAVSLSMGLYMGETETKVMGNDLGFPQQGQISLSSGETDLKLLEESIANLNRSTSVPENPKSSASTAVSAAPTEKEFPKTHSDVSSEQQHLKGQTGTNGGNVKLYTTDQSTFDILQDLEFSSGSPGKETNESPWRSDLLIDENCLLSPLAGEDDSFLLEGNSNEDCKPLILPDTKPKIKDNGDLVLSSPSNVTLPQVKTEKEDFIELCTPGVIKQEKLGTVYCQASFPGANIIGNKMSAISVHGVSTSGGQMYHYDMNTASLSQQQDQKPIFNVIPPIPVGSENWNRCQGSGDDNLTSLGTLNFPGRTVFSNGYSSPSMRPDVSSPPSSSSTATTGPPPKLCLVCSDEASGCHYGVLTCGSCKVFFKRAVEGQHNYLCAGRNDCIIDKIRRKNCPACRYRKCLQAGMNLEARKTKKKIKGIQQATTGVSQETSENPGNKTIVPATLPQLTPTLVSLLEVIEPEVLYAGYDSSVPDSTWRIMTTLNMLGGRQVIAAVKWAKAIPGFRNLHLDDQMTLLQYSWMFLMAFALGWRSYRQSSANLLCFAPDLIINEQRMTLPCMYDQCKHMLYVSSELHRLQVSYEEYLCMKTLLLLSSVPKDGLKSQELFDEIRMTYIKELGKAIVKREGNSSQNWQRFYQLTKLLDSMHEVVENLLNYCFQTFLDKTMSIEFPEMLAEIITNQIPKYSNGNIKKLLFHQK
The data set can be described thus: Glucocorticoid receptor binding assay (fluorescence polarisation). The note with it: competition with Alexa 555 fluorescently-labelled dexamethasone derivative, full length glucocorticoid receptor; read-out: glucocorticoid binding pIC50 (converted). On the procedure:
Compounds were solvated and diluted in DMSO, and transferred directly into assay plates. Fluorescent dexamethasone and a partially purified full length glucocorticoid receptor were added to the plates, together with buffer components to stabilise the GR protein and incubated at room temperature for 2 hrs in the dark. Binding of each compound was assessed by analysing the displacement of fluorescent ligand by measuring the decrease in fluorescence polarisation signal from the mixture. Dose response curves were constructed from which pIC50 values were estimated.

A short description of data set [1]: Assay for brain penetrance. The note with it: brain and plasma, rat, single intravenous dose 1 mg/kg, read-out: brain to plasma ratio. The format is in vivo. On the procedure: Each rat received a single intravenous dose at a level of 1 mg/kg. The dose was formulated in 10% DMSO/50% PEG200/40% sterile water. Terminal blood samples were taken at 5 or 15 minutes after dosing, by cardiac puncture following anaesthesia with isofluorane. The brains were removed at the same time point.
The compounds were extracted from 20 μL plasma by protein precipitation using 120 μL acetonitrile containing an analogue compound as an internal standard. The filtered extracts were collected into a 96 well plate and were diluted with an equal volume of 10% acetonitrile containing 0.1% formic acid in water (v/v). The plate was then mixed on a plate shaker for at least 5 minutes before analysis by LC-MS/MS against a calibration line prepared in control plasma.
Each brain was weighed, then homogenised in 3 ml acetonitrile:water (10:90 v/v). The compounds were extracted from 200 μL of the resulting homogenate by protein precipitation using 600 μL acetonitrile containing an analogue compound as an internal standard. The extracts were centrifuged and 150 μl of each was filtered and transferred to a 96 well plate. The aliquot was diluted with 10% acetonitrile containing 0.1% formic acid in water (v/v). The plate was mixed on a plate shaker for at least 5 minutes before analysis by LC-MS/MS against a calibration line prepared in control brain homogenate.

For the compound `CN(CC(O)(CNC(=O)c1cnn(-c2ccc(F)cc2)c1N)C(F)(F)F)C(=O)c1c(Cl)cccc1Cl` (single isomer, unassigned) [Example 1 Enantiomer 1, 5-Amino-N-(2-{[[(2,6-dichlorophenyl)carbonyl](methyl)amino]methyl}-3,3,3-trifluoro-2-hydroxypropyl)-1-(4-fluorophenyl)-1H-pyrazole-4-carboxamide], the values for the IC50 in the data set on NFκB and at glucocorticoid receptor were less than 1000 nM and not above 316 nM, respectively. For the same compound, the EC50 on progesterone receptor is more than 1000 nM. The Kp at 5 min in data set [1] is not below 0.1.
As for `CCN(CC(O)(CNC(=O)c1cnn(-c2ccc(F)cc2)c1N)C(F)(F)F)C(=O)c1c(F)cccc1F` (single isomer, unassigned) [Example 5 Enantiomer 1, 5-Amino-N-(2-{[[(2,6-difluorophenyl)carbonyl](ethyl)amino]methyl}-3,3,3-trifluoro-2-hydroxypropyl)-1-(4-fluorophenyl)-1H-pyrazole-4-carboxamide], the figures for the IC50 in the data set on NFκB and at glucocorticoid receptor were less than 1000 nM and not above 316 nM, respectively. Moreover, the EC50 on progesterone receptor was more than 1000 nM. Also, the Kp at 5 min in data set [1] was not below 0.1.
